Source: US20240066136A1, “MODIFIED PROTEINS AND PROTEIN DEGRADERS” (Cullgen (Shanghai), Inc., priority 2020, published 2024)
Like-named read-outs stand apart in the source and are kept apart here.

Columns and labels:
CBP = CBP (Homo sapiens (Human), UniProt Q92793); assay: Immunoblot of CBP protein in LNCaP cells after compound treatment; format: cell-based
Protocol: (§1) Experiments were performed to see if heterobifunctional compounds as described herein could degrade target proteins. Specific exemplary heterobifunctional compounds were characterized in LNCaP and Calu-1 cells. LNCaP cells that express P300/CBP proteins were treated with heterobifunctional compounds disclosed herein (D-2, D-13, or D-7) at indicated concentrations for 8 hours. Cells were collected, lysed and subject to immunoblotting using an antibody specific to P300 or CBP proteins. Vinculin was included as the loading control. DMSO treatment was used as the negative control. […] In addition, LNCaP cells were treated with 500 nM of D-2, or D-13 for indicated period of time. Subsequently, changes in P300 and CBP protein levels were measured by immunoblotting.

P300 [1] = target: T1, P300 (Homo sapiens (Human), UniProt Q09472); assay: Immunoblot of P300 protein in LNCaP cells after compound treatment; format: cell-based
T1 sequence (Q09472 whole entry): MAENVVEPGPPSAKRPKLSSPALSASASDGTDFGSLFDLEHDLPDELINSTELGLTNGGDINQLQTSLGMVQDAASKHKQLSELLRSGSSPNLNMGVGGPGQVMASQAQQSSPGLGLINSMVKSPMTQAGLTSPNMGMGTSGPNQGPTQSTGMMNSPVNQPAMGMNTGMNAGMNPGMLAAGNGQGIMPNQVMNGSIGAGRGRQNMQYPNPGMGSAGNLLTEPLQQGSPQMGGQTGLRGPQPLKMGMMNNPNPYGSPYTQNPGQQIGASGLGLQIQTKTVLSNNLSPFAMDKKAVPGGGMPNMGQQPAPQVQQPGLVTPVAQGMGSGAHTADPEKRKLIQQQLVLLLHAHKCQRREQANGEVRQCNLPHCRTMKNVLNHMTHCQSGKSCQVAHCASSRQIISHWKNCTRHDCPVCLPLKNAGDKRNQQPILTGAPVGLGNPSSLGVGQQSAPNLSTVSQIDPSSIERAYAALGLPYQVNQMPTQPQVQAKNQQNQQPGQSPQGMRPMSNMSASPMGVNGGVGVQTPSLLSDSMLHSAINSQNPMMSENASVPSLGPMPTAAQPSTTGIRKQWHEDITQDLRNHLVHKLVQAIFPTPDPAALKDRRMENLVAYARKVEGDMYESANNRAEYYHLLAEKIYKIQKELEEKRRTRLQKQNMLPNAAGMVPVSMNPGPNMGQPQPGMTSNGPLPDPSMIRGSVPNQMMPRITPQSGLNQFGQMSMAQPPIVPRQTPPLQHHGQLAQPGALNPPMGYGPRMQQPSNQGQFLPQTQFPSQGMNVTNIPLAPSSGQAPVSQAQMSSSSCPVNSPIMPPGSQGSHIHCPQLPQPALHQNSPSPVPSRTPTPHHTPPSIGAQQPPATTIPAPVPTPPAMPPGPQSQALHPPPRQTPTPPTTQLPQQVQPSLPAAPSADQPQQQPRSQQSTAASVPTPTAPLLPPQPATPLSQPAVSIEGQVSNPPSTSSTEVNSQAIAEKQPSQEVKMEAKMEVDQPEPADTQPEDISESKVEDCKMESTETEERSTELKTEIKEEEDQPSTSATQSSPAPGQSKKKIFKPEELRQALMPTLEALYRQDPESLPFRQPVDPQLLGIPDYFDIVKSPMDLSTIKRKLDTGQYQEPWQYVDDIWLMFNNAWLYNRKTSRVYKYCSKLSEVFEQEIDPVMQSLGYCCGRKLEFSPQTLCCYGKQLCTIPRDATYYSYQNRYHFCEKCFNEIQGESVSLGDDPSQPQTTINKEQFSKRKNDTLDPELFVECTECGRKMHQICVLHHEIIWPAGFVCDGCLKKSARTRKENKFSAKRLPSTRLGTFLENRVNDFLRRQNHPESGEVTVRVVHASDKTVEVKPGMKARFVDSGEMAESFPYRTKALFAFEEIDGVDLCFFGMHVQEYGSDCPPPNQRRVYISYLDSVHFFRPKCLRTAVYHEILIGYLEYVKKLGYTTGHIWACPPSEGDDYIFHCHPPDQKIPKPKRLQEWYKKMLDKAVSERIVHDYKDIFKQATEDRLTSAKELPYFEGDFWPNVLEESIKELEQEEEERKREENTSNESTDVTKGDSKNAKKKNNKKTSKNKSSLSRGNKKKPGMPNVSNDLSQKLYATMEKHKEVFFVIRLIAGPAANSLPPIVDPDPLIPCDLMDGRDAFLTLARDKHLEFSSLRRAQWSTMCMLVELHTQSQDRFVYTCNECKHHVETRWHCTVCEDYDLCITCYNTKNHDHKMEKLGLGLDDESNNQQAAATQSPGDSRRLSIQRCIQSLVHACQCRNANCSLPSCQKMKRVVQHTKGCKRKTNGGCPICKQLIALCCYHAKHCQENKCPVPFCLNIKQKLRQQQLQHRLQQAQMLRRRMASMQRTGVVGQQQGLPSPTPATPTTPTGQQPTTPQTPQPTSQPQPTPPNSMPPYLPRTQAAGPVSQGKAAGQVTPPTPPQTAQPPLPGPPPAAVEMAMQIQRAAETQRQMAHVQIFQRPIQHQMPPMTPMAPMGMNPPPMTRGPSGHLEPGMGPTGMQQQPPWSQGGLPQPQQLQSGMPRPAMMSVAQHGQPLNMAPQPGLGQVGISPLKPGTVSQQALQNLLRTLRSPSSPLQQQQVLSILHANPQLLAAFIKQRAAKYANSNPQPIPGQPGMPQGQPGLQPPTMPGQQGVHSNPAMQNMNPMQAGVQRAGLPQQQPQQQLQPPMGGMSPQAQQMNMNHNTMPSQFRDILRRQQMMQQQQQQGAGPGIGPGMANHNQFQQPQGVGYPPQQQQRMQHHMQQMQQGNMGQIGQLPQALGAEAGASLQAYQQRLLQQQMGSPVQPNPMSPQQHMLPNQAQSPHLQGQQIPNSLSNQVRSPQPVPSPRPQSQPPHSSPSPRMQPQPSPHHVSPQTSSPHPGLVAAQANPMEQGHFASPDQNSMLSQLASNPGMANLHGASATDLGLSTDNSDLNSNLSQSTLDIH
Protocol: as §1

P300 [2] = target: T1, P300; assay: Immunoblot of P300 in Calu-1 cells with co-administered proteasome, neddylation or DDB1-ligand competitor; format: cell-based
Excerpt: The heterobifunctional compound-mediated p300 and CBP degradation was dependent on the ubiquitin-proteasome system and cullin E3 ligase. […] The binding with DDB1 also played a role in the heterobifunctional compounds ability to induce degradation of P300 and CBP proteins.

Human DDB1 = Human DDB1 (Homo sapiens (Human), UniProt Q16531); assay: Surface plasmon resonance (SPR) binding assay to immobilized His-DDB1; details: SPR
Human DDB1, sequence (Q16531 whole entry): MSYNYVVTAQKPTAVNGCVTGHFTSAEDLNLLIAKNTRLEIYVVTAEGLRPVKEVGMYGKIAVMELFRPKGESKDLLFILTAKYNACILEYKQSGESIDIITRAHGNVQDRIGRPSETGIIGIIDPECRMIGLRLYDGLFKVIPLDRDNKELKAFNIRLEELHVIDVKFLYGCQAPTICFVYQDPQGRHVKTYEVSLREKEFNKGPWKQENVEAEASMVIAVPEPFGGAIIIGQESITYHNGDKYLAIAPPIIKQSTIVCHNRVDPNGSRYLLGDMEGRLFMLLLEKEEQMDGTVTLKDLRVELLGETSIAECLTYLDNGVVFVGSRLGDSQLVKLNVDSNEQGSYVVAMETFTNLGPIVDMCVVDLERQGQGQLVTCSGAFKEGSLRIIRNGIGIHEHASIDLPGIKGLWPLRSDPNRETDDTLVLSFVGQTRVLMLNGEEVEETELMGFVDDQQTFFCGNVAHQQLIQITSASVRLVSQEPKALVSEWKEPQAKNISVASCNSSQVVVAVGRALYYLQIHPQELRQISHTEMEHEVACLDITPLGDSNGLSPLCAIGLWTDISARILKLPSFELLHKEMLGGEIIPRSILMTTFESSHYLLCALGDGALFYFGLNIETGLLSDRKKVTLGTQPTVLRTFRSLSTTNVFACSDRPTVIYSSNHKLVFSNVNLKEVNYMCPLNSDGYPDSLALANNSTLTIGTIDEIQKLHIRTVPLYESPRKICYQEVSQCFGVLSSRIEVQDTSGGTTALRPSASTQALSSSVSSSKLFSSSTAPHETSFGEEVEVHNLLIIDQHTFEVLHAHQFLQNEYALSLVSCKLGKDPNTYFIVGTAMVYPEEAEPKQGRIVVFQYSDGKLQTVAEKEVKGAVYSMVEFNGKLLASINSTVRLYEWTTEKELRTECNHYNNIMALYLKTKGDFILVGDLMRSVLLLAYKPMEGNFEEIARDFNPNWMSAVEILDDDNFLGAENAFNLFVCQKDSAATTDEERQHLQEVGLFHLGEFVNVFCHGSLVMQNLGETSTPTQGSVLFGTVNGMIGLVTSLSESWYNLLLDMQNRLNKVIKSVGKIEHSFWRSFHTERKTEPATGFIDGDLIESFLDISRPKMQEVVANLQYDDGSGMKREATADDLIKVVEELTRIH
How it was run: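 Baculovirus-expressed His-DDB1 (High5 cells) amine-coupled to 11,000–13,000 RU on a CM5 chip; compounds injected in multi-cycle format without regeneration at 25° C in HBS-EP pH 7.4 (120 s association/dissociation). Double-referenced, solvent-corrected data fit to steady-state affinity model for KD.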

CDK4 = CDK4 (Homo sapiens (Human), UniProt P11802); assay: Immunoblot of CDK4 protein in Calu-1 cells; format: cell-based; details: indicated concentrations, 16 hours, immunoblot
CDK4, sequence (P11802 whole entry): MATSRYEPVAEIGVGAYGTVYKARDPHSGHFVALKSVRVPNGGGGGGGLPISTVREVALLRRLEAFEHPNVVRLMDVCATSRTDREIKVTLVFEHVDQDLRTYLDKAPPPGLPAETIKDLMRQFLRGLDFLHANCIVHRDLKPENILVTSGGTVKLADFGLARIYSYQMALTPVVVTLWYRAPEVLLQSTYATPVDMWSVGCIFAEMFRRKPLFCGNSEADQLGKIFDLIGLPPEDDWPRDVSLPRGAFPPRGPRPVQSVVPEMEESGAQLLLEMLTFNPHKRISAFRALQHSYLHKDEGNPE
Protocol: Additional heterobifunctional compounds were designed and tested for their ability to target and degrade another two target proteins, CDK4 and CDK6. Calu-1 cells that express CDK4/6 proteins were treated with heterobifunctional compounds disclosed herein (D-44 to D-49) at indicated concentrations for 16 hours. Cells were collected, lysed and subject to immunoblotting using an antibody specific to CDK4, CDK6 or phosphorylated Rb proteins. Tubulin was included as the loading control. DMSO treatment was used as the negative control. […] In addition, Calu-1 cells were treated with 1 μM D-48 or D-49 for an indicated period of time. Subsequently, changes in CDK4 and CDK6 protein levels were measured by immunoblotting. […] These experiments highlight the ability of DDB1 binder derived heterobifunctional compounds to degrade multiple different target proteins, including but not limited to epigenetic target proteins, such as CBP and p300, and kinases, such as CDK4 and CDK6.

A375 = assay: Cell viability assay (CellTiter-Glo); format: cell-based; details: Homo sapiens, A-375, 120 h; A375, 5 days
Protocol: (§2) A variety of cancer cell lines were treated with Palbociclib or selected heterobifunctional compounds for 5 days at indicated concentrations in FIG. 12.
(§3) Cell Culture. LNCaP (clone FGC), Calu-1, MDA-MB-468, MDA-MB-453, NCI-H358, HCC1937, BT-549, HCT116, A375, SK-MEL-28, SK-N-SH, MIA PaCa-2, HS 578T, HCC827, MIA PaCa-2, and other cells were cultured at 37° C. with 5% CO2 in DMEM or RPMI 1640 Medium supplemented with 10% fetal bovine serum. Cells were authenticated using the short tandem repeat (STR) assays. Mycoplasma test results were negative.
(§4) Cell viability assay. Cells were seeded at a density of 5000 cells per well in 96-well assay plates and treated with test compounds following a 11-point 3-fold serial dilution for 3-5 days. Three days later, cell viability was determined using the CellTiter-Glo Assay Kit according to the manufacturer's instructions. The dose-response curves were determined and IC50 values were calculated using the GraphPad Prism software following a nonlinear regression (least squares fit) method.

BT-549 = assay: Cell viability assay (CellTiter-Glo); format: cell-based; details: Homo sapiens, 120 h; BT-549, 5 days
Protocol: as §2, §3, §4

HCC827 = assay: Cell viability assay (CellTiter-Glo); format: cell-based; details: Homo sapiens, 120 h; HCC827, 5 days
Protocol: as §2, §3, §4

SK-MEL-28 = assay: Cell viability assay (CellTiter-Glo); format: cell-based; details: Homo sapiens, 120 h; SK-MEL-28, 5 days
Protocol: as §2, §3, §4

HCT116 = assay: Cell viability assay (CellTiter-Glo); format: cell-based; details: Homo sapiens, HCT-116, 120 h; HCT116, 5 days
Protocol: as §2, §3, §4

Hs 578T = assay: Cell viability assay (CellTiter-Glo); format: cell-based; details: Homo sapiens, 120 h, 5 days
Protocol: as §2, §3, §4

SK-N-SH = assay: Cell viability assay (CellTiter-Glo); format: cell-based; details: Homo sapiens, 120 h, 5 days
Protocol: as §2, §3, §4

HCC1937 = assay: Cell viability assay (CellTiter-Glo); format: cell-based; details: Homo sapiens, 120 h; HCC1937, 5 days
Protocol: as §2, §3, §4

NCI-H358 = assay: Cell viability assay (CellTiter-Glo); format: cell-based; details: Homo sapiens, 120 h; NCI-H358, 5 days
Protocol: as §2, §3, §4

MDAMB-468 = assay: Cell viability assay (CellTiter-Glo); format: cell-based; details: Homo sapiens, MDA-MB-468, 120 h; MDAMB-468, 5 days
Protocol: as §2, §3, §4

Calu-1 = assay: Cell viability assay (CellTiter-Glo); format: cell-based; details: Homo sapiens, 120 h; Calu-1, 5 days
Protocol: (§5) Calu-1, MDA-MB-453 or MIA PaCa-2 cancer cells were treated with Palbociclib or selected heterobifunctional compounds for 5 days at indicated concentrations following a 2-fold serial dilution.
as §2, §3, §4

MIA PaCa-2 = assay: Cell viability assay (CellTiter-Glo); format: cell-based; details: Homo sapiens, 120 h; MIA PaCa-2, 5 days
Protocol: as §5, §2, §3, §4

MDAMB-453 = assay: Cell viability assay (CellTiter-Glo); format: cell-based; details: Homo sapiens, MDA-MB-453, 120 h; MDAMB-453, 5 days
Protocol: as §5, §2, §3, §4

[3] = tested on: Calu-1, MDA-MB-453, and MIA PaCa-2 cell lines; assay: Cell viability after 5 days of treatment; format: cell-based; details: variety of different cell types
Excerpt: FIG. 12 and Table 8 include cell viability data after treatment with heterobifunctional compound D-128, D129, or D-130. […] The compounds may be effective in multiple cell types.

[4] = indicated concentrations, 8 hours, immunoblot
[5] = DDB1 binding moieties with linkers and/or target protein binding moiety, read-out: Binding (Kd)
[6] = steady state affinity model, 25° C., read-out: Binding (DDB1 binder activities, Kd)

IC50 (A375) [nM]	IC50 (BT-549) [nM]	IC50 (HCC827) [nM]	IC50 (SK-MEL-28) [nM]	IC50 (HCT116) [nM]	IC50 (SK-N-SH) [nM]	IC50 (HCC1937) [nM]	IC50 (NCI-H358) [nM]	IC50 (MDAMB-468) [nM]	IC50 (Calu-1) [nM]	IC50 (MIA PaCa-2) [nM]	IC50 (MDAMB-453) [nM]	Kd (Human DDB1; [6]) [nM]	SMILES	IC50 (Hs 578T) [nM]	also measured
													CC(=O)Nc1cc(NCCCCNC(=O)CN2CCC(n3nc(N4CCCc5cc(-c6cnn(C)c6)c(C(F)F)cc54)c4c3CCN(C(C)=O)C4)CC2)ccc1C(=O)Nc1ccc([N+](=O)[O-])s1 [D-13, 2-Acetamido-4-((4-(2-(4-(5-acetyl-3-(7-(difluoromethyl)-6-(1-methyl-1H-pyrazol-4-yl)-3,4-dihydroquinolin-1 (2H)-yl)-4,5,6,7-tetrahydro-1H-pyrazolo[4,3-c]pyridin-1-yl)piperidin-1-yl)acetamido)butyl)amino)-N-(5-nitrothiophen-2-yl)benzamide]		time at which significant degradation of CBP was detected (CBP; 500 nM, time course): 2 to 4 h; CBP protein levels (CBP; [4]): significantly decreased in a concentration-dependent manner; time at which significant degradation of P300 was detected (P300 [1]; 500 nM, time course): 2 to 4 h; P300 protein levels (P300 [1]; [4]): significantly decreased in a concentration-dependent manner; compound-induced degradation under co-administration of MG-132 or bortezomib (BTZ), or MLN4924 (P300 [2]): compromised; compound-mediated degradation under co-administration with excess DDB1 ligand BL-11 (P300 [2]): partially neutralized; Kd (Human DDB1; [5]): 20000 to 100000 nM
2000 to 10000	> 10000	> 10000	2000 to 10000	> 10000	> 10000	> 10000	> 10000	> 10000	> 10000	2000 to 10000	> 10000		CC(=O)c1c(C)c2cnc(Nc3ccc(N4CCNCC4)cn3)nc2n(C2CCCC2)c1=O [palbociclib, reference compound]	2000 to 10000	CDK4 protein levels (CDK4): didn't have a significant effect
< 2000	< 2000	< 2000	< 2000	< 2000	< 2000	< 2000	< 2000	2000 to 10000	< 2000	< 2000	< 2000		CC(=O)c1c(C)c2cnc(Nc3ccc(N4CCN(CC(=O)NCCOCCOCCOCCOCCNc5ccc(C(=O)Nc6ncc([N+](=O)[O-])s6)c(C)c5)CC4)cn3)nc2n(C2CCCC2)c1=O [D-128, 4-((1-(4-(6-((6-Acetyl-8-cyclopentyl-5-methyl-7-oxo-7,8-dihydropyrido[2,3-d]pyrimidin-2-yl)amino)pyridin-3-yl)piperazin-1-yl)-2-oxo-6,9,12,15-tetraoxa-3-azaheptadecan-17-yl)amino)-2-methyl-N-(5-nitrothiazol-2-yl)benzamide]	< 2000	reduction of cell viability compared to palbociclib [3]: more effective at lower doses than palbociclib
2000 to 10000	< 2000	< 2000	< 2000	< 2000	< 2000	< 2000	< 2000	2000 to 10000	< 2000	< 2000	< 2000		CC(=O)c1c(C)c2cnc(Nc3ccc(N4CCN(CC(=O)NCCOCCOCCOCCOCCOCCOCCNc5ccc(C(=O)Nc6ncc([N+](=O)[O-])s6)c(C)c5)CC4)cn3)nc2n(C2CCCC2)c1=O [D-130, 4-((1-(4-(6-((6-Acetyl-8-cyclopentyl-5-methyl-7-oxo-7,8-dihydropyrido[2,3-d]pyrimidin-2-yl)amino)pyridin-3-yl)piperazin-1-yl)-2-oxo-6,9,12,15,18,21-hexaoxa-3-azatricosan-23-yl)amino)-2-methyl-N-(5-nitrothiazol-2-yl)benzamide]	< 2000	reduction of cell viability compared to palbociclib [3]: more effective at lower doses than palbociclib
< 2000	< 2000	< 2000	< 2000	< 2000	< 2000	< 2000	< 2000	2000 to 10000	< 2000	< 2000	< 2000		CC(=O)c1c(C)c2cnc(Nc3ccc(N4CCN(CC(=O)NCCOCCOCCOCCOCCOCCNc5ccc(C(=O)Nc6ncc([N+](=O)[O-])s6)c(C)c5)CC4)cn3)nc2n(C2CCCC2)c1=O [D-129, 4-((1-(4-(6-((6-Acetyl-8-cyclopentyl-5-methyl-7-oxo-7,8-dihydropyrido[2,3-d]pyrimidin-2-yl)amino)pyridin-3-yl)piperazin-1-yl)-2-oxo-6,9,12,15,18-pentaoxa-3-azaicosan-20-yl)amino)-2-methyl-N-(5-nitrothiazol-2-yl)benzamide]	< 2000	reduction of cell viability compared to palbociclib [3]: more effective at lower doses than palbociclib
													CC(=O)Nc1cc(NCCCCN)ccc1C(=O)Nc1nc(C)c([N+](=O)[O-])s1 [BL-11, 2-Acetamido-4-((4-aminobutyl)amino)-N-(4-methyl-5-nitrothiazol-2-yl)benzamide]		CDK4 protein levels (CDK4): didn't have a significant effect; Kd (Human DDB1; [5]): 20000 to 100000 nM
												20000 to 100000	CC(C)C(=O)NCCC1CN(Cc2cccc3[nH]ccc23)Cc2ccnn21 (stereo not shown) [B-142, N-(2-(5-((1H-indol-4-yl)methyl)-4,5,6,7-tetrahydropyrazolo[1,5-a]pyrazin-7-yl)ethyl)isobutyramide]		
												20000 to 100000	CCCCNc1ccc(C(=O)Nc2ncc([N+](=O)[O-])s2)c(C)c1 [B-165, 4-(Butylamino)-2-methyl-N-(5-nitrothiazol-2-yl)benzamide]		
												20000 to 100000	CC(=O)Nc1ccccc1C(=O)Nc1nc(C2CC2)c([N+](=O)[O-])s1 [B-32, 2-Acetamido-N-(4-cyclopropyl-5-nitrothiazol-2-yl)benzamide]		
												< 20000	CCOc1ccccc1C(=O)N(C)c1ncc([N+](=O)[O-])s1 [B-102, 2-Ethoxy-N-methyl-N-(5-nitrothiazol-2-yl)benzamide]		

SMILES	IC50 (A375) [nM]	IC50 (BT-549) [nM]	IC50 (HCC827) [nM]	IC50 (SK-MEL-28) [nM]	IC50 (HCT116) [nM]	IC50 (SK-N-SH) [nM]	IC50 (HCC1937) [nM]	IC50 (NCI-H358) [nM]	IC50 (MDAMB-468) [nM]	IC50 (Calu-1) [nM]	IC50 (MIA PaCa-2) [nM]	IC50 (MDAMB-453) [nM]	Kd (Human DDB1; [6]) [nM]	IC50 (Hs 578T) [nM]	also measured
CC(C)COc1ccccc1C(=O)N(C)c1ncc([N+](=O)[O-])s1 [B-103, 2-Isobutoxy-N-methyl-N-(5-nitrothiazol-2-yl)benzamide]													20000 to 100000		
